Assay results from patent US20140212800A1, “ELECTROPHOTOGRAPHIC PHOTOSENSITIVE MEMBER, PROCESS CARTRIDGE AND ELECTROPHOTOGRAPHIC APPARATUS” (CANON KABUSHIKI KAISHA, priority 2013, published 2014).

Experiment: Solubility of the charge transporting substance in 100 g of first / second solvent
Format: physicochemical
Details: 23° C., 1 atmosphere; for Solubility Y1: in 100 g of toluene (first solvent)
Method: The charge transporting layer satisfying the expressions (4-1) to (4-5) is formed by drying a coat of a charge-transporting-layer coating liquid containing the charge transporting substance, the binder resin, and the following first solvent and second solvent. Additionally, when the solubility of the charge transporting substance in 100 g of the first solvent in an environment at 23° C. under 1 atmosphere is designated as Y1(g), and the solubility of the charge transporting substance in 100 g of the second solvent in an environment at 23° C. under 1 atmosphere is designated as Y2(g), solubility Y1 and solubility Y2 satisfy the following expression (6).
Each of electrophotographic photosensitive members was produced in the same manner as in Example 1 except that the charge transporting substance represented by the formula (CTM-2), polyester resin A having the structural unit represented by the formula (1-18) and o-xylene in Example 1 were changed as shown in Table 1.

| Solubility Y2 (in 100 g of acetophenone (second solvent)) | Solubility Y2 (in 100 g of methyl benzoate (second solvent)) | Solubility Y1 | SMILES |
| --- | --- | --- | --- |
| 8 g | 8 g | 20 g | C(/C=C/c1cccc(N(c2ccccc2)c2ccc(-c3ccc(N(c4ccccc4)c4cccc(/C=C/C=C/c5ccccc5)c4)cc3)cc2)c1)=C\c1ccccc1 [CTM-2] |
| – | – | 25 g | Cc1ccc(N(C=C(c2ccccc2)c2ccccc2)c2ccc(-c3ccc(N(C=C(c4ccccc4)c4ccccc4)c4ccc(C)cc4C)cc3)cc2)c(C)c1 [CTM-3] |
